Reference: patent US20240369511A1, “INTEGRATED ELECTROCHEMICAL APTASENSORS FOR MEASURING CELL DEATH AND CYTOKINE ACTIVITY FROM INTACT TISSUE SAMPLES” (University of Washington, priority 2023, published 2024)

Columns and labels:
[1] = system: cuboids from a human colorectal tumor biopsy; experiment: CytC in supernatant of drug-treated human tumor cuboids, ELISA; assay type: cell-based; details: three days treatment; duplicated supernatant samples; same drug concentrations
Experimental: (§1) Measurement of CytC from the supernatant of human microdissected cancer tissue cultured with drugs using the aptasensor platform. A study was conducted to assess the aptasensor platform's ability to quantify CytC secretion from human cuboids after drug treatments for three days in culture with Staurosporine, FOLFOX (a combination of fluorouracil and oxaliplatin), and FOLFIRI (a combination of fluorouracil and irinotecan), in comparison to the dimethyl sulfoxide (DMSO) vehicle control. Uniform-sized cuboids were prepared from a human colorectal tumor biopsy. Each drug condition was prepared in duplicate. Subsequently, the supernatants were collected and the level of CytC released from the cuboids after cell death was measured using the aptasensor platform. To validate the platform's measurements, the results were compared with those obtained from ELISA (FIG. 4D). […] In some cases, the platform even indicated higher production rates. Duplicates for both the sensor and for the ELISA were consistent. […] While the trend in measurements for supernatant 1 and supernatant 2 was similar between sensor reading and ELISA, the higher concentration observed in sensor readings may stem from variations in the sensor-specific calibration curves.
(§2) Human colorectal cancer tumor supernatant. Colorectal tumor biopsy was obtained from a person with metastatic cancer who had been off treatment for a year. […]

[2] = system: cuboids from a human colorectal tumor biopsy; experiment: CytC in supernatant of drug-treated human tumor cuboids, aptasensor platform; assay type: cell-based; details: three days treatment; Staurosporine 1 μM, FOLFOX 1 μg/mL 5FU+1 μg/mL Oxaliplatin, FOLFIRI 5FU+Irinotecan
Experimental: as §1, §2

Question: What does the source list for `CN[C@@H]1C[C@H]2O[C@@](C)([C@@H]1OC)n1c3ccccc3c3c4c(c5c6ccccc6n2c5c31)C(=O)NC4` [Staurosporine]?
Answer: CytC production relative to DMSO control vehicle (ELISA) [1]: 4.23 fold; CytC production relative to DMSO control vehicle (aptasensor platform) [2]: ~3 fold
